The values below are quoted from earlier work in patent US20220409533A1, “LAG TIME REDUCTION/ICE SPRAY” (LTS LOHMANN THERAPIE-SYSTEME AG, priority 2019, published 2022).

The conditions of the data set: transdermal application.

On to `CN1CCCC1c1cccnc1` (stereo not shown) [nicotine], for which the “resorption delay time (lag time)” value was 6 h.
